Source: patent publication US20240279247A1, “PRODRUGS OF BORON COMPOUNDS AND THEIR USE IN TREATING BACTERIAL INFECTIONS” (priority 2022, published 2024)
Like-named read-outs stand apart in the source and are kept apart here.

Legend:
[1] = Pharmacokinetic study in rat (iv or oral gavage); type: in vivo, SD rats; settings: SD rat; for AUC compared with that of Example 5, in words: oral
Description: To further elucidate therapeutic potential of drug compounds, pharmacokinetic (PK) data is used to establish the key parameters predictive of the therapy outcome, such as area under the curve (AUC) for a plot monitoring the change in the systemic drug concentration over time. Thus, a higher AUC value indicates a greater exposure to the drug, commonly associated with a greater therapeutic potential due to a higher amount of drug available to combat the infection in a mammal. In contrast, a lower AUC value indicates a reduced exposure to the drug under study, resulting in a reduced amount of antibiotic available to combat bacterial infestations. To that end, the compounds described herein were tested in a rat PK model of oral administration performed analogously to methods described in the monograph Current Protocols in Pharmacology, 2005, 7.1.1-7.1.26, John Wiley & Sons, Inc.
All the compounds were administered to SD rats (The rats were randomly divided into groups with 3 rats in each group) by intravenous (iv) or oral gavage. Since the prodrugs are expected to convert to the parent molecule in vivo, only the parent compound (the compound of Example 5) was tested for all samples. […] This low bioavailability as well as low exposure (AUC) and C max make it inappropriate for development as oral drug. […] Because the prodrugs usually have larger molecular weight due to the introduction of prodrug substructures, the AUC is corrected by dose and molecular weight (MW) to give AUC per mole, to compare the efficiency among the prodrugs.

E. coli MECO 002 = assay: In vitro antibacterial activity (MIC), E. coli; type: cell-based; settings: Escherichia coli, MECO002
Description: (§1) The in vitro activity of compounds described herein may be assessed by standard testing procedures such as the determination of minimum inhibitory concentration (MIC) as described in Approved Standard. Methods for Dilution Antimicrobial Susceptibility Tests for Bacteria that Grow Aerobically, 3rd ed., 1993, published by the National Committee for Clinical Laboratory standards, Villanova, Pennsylvania, USA. Low MIC values indicate high antibacterial activity, while high MIC values reveal a reduced antibacterial activity (with higher drug concentration required for pathogen eradication in the latter instance). Generally, MIC values of about ≤4-8 μg/mL indicate a therapeutic (i.e. suitable for therapy) potency for antibacterial drugs, while MIC values of ≥16 μg/mL indicate a lack of therapeutically useful activity for a test compound.

A. baumannii MABA 0001 = assay: In vitro antibacterial activity (MIC), A. baumannii; type: cell-based; settings: Acinetobacter baumannii, MABA0001
Description: as §1

P. aeruginosa PAE 1001 = assay: In vitro antibacterial activity (MIC), P. aeruginosa; type: cell-based; settings: Pseudomonas aeruginosa, PAE1001
Description: as §1

K. pneumoniae ATCC10031 = assay: In vitro antibacterial activity (MIC), K. pneumoniae; type: cell-based; settings: Klebsiella pneumoniae
Description: as §1

[2] = Lung vs. plasma distribution study in mice; type: in vivo; settings: Balb/C mouse
[3] = tested on: Pseudomonas aeruginosa WPAE 1004; assay: Pseudomonas aeruginosa mouse lung infection model; type: in vivo; settings: ICR mouse, po 10 mg/kg once daily; for WPAE 1004, Lg (CFU/lung) 24 h: oral suspension; for Δ 24 h (Control-Theray), log reduction of CFU in lung: vs untreated control
Experimental: To establish the efficacy of the compounds described herein in vivo, a Pseudomonas aeruginosa mouse lung infection model was performed by administering test compounds analogously to the method described in Andes et al. in Antimicrobial Agents and Chemotherapy, 2002, 46(11), 3484-3489. In this model, a greater reduction in the bacterial colony-forming units (CFU) indicates more beneficial therapeutic effect (more bacterial eradication), while a lower CFU reduction indicates a lower effect (less bacterial eradication). The in vivo antibacterial effect is also referred to as “efficacy”, in contrast to the term “potency,” which is commonly used for in vitro activity (expressed as MIC).
In the Pseudomonas aeruginosa ICR mouse (The mice were randomly divided into groups with 6 mice in each group) lung infection, reference Example 5 was administered orally at 10 mg/kg once daily. […] As a prodrug for oral administration, the compound of Example 2 and 8 were also given by oral gavage at 10 mg/kg once daily. […] The data is strongly supportive of the prodrug of Example 2 and 8 being converted to reference compound of Example 5 after oral administration to exert the antibacterial activity. The data also supports a high conversion rate.

[4] = tested on: Gram-negative bacteria, including Pseudomonas aeruginosa, Acinetobacter baumannii, Escherichia coli, and Klebsiella pneumoniae; assay: In vitro antibacterial activity (MIC), summary over Gram-negative bacteria; type: cell-based; settings: for in vitro antibacterial activity in words: prodrugs of Example 5, Table 1 data
Description: as §1

[5] = in vivo, iv 5 mg/kg, parent compound (Example 5) measured

| AUClast, lung ([2]; Example 2 10 mg/kg po, levels for Example 2) | AUClast, lung ([2]; Example 2 10 mg/kg po, levels for Example 5) | AUClast, lung ([2]; Example 5 10 mg/kg iv, levels for Example 5) | Kp ([2]; lung/plasma, Example 5 10 mg/kg iv, levels for Example 5, read-out: AUC ratio (lung/plasma)) | half-life ([2]; lung, Example 5 10 mg/kg iv, levels for Example 5, read-out: t1/2, lung (converted)) | AUC(0-t) ([2]; plasma, Example 5 10 mg/kg iv, levels for Example 5, read-out: AUClast, plasma) | half-life ([2]; plasma, Example 5 10 mg/kg iv, levels for Example 5, read-out: t1/2, plasma (converted)) | AUC [1, 5] | Cmax [1, 5] | MIC range against Gram-negative bacteria ([4]; range over the four strains of Table 1) | SMILES | AUC compared with that of Example 5, in words [1] | MIC (E. coli MECO 002) | MIC (A. baumannii MABA 0001) | MIC (P. aeruginosa PAE 1001) | MIC (K. pneumoniae ATCC10031) | WPAE 1004, Lg (CFU/lung) 24 h [3] | Δ 24 h (Control-Theray), log reduction of CFU in lung [3] | in vitro antibacterial activity in words [4] |
| --- | --- | --- | --- | --- | --- | --- | --- | --- | --- | --- | --- | --- | --- | --- | --- | --- | --- | --- |
| 968 ng·h/g | 23589 ng·h/g | – | – | – | – | – | – | – | – | CC(C)C(=O)OC[C@H](COc1cccc2c1B(O)O[C@@H]2CN)OC(=O)C(C)C.Cl [Example 2, (2S)-1-{[(3S)-3-(aminomethyl)-1-hydroxy-1,3-dihydrobenzo[2,1-c][1,2]oxaborol-7-yl]oxy}-3-[(2-methylpropanoyl)oxy]propan-2-yl 2-methylpropanoate hydrochloride] | significantly higher | > 32 µg/mL | > 32 µg/mL | > 32 µg/mL | > 32 µg/mL | 7.50 ± 0.73 Lg (CFU/lung) | 1.77 Lg (CFU/lung) | inactive |
| – | – | 12822 ng·h/g | 2.39 | 1.46 h | 5360 ng·h/mL | 1.87 h | 5660 ng·h/mL | 6780 ng/mL | 2 to 4 µg/mL | Cl.NC[C@H]1OB2O[C@H](CO)COC3C=CC=C1C23 (stereo partly drawn) [Example 5, [(2S,6R)-2-(aminomethyl)-4-bora-3,5,8-trioxatricyclo[7.3.1.04,13]trideca-1(12),10-dien-6-yl]methanol hydrochloride, reference compound] | – | 2 µg/mL | 2 µg/mL | 2 µg/mL | 4 µg/mL | 8.56 ± 0.49 Lg (CFU/lung) | 0.53 Lg (CFU/lung) | – |

Further lines, the compound ahead of its results:

| SMILES | AUClast, lung ([2]; Example 2 10 mg/kg po, levels for Example 2) | AUClast, lung ([2]; Example 2 10 mg/kg po, levels for Example 5) | AUClast, lung ([2]; Example 5 10 mg/kg iv, levels for Example 5) | Kp ([2]; lung/plasma, Example 5 10 mg/kg iv, levels for Example 5, read-out: AUC ratio (lung/plasma)) | half-life ([2]; lung, Example 5 10 mg/kg iv, levels for Example 5, read-out: t1/2, lung (converted)) | AUC(0-t) ([2]; plasma, Example 5 10 mg/kg iv, levels for Example 5, read-out: AUClast, plasma) | half-life ([2]; plasma, Example 5 10 mg/kg iv, levels for Example 5, read-out: t1/2, plasma (converted)) | AUC [1, 5] | Cmax [1, 5] | MIC range against Gram-negative bacteria ([4]; range over the four strains of Table 1) | AUC compared with that of Example 5, in words [1] | MIC (E. coli MECO 002) | MIC (A. baumannii MABA 0001) | MIC (P. aeruginosa PAE 1001) | MIC (K. pneumoniae ATCC10031) | WPAE 1004, Lg (CFU/lung) 24 h [3] | Δ 24 h (Control-Theray), log reduction of CFU in lung [3] | in vitro antibacterial activity in words [4] |
| --- | --- | --- | --- | --- | --- | --- | --- | --- | --- | --- | --- | --- | --- | --- | --- | --- | --- | --- |
| CC(=O)OC[C@@H]1COc2cccc3c2B(O1)O[C@@H]3CN.Cl [Example 7, [(2S,6S)-2-(aminomethyl)-4-bora-3,5,8-trioxatricyclo[7.3.1.04,13]trideca-1(12),9(13),10-trien-6-yl]methyl acetate hydrogen chloride] | – | – | – | – | – | – | – | – | – | – | significantly higher | – | – | – | – | – | – | – |
| CCC(=O)OC[C@H](COc1cccc2c1B(O)O[C@@H]2CN)OC(=O)CC.Cl [Example 6] | – | – | – | – | – | – | – | – | – | – | significantly higher | – | – | – | – | – | – | – |
| CC(=O)OC[C@H](COc1cccc2c1B(O)O[C@@H]2CN)OC(C)=O.Cl [Example 1, (2S)-3-acetoxy-1-{[(3S)-3-(aminomethyl)-1-hydroxy-1,3-dihydrobenzo[2,1-c][1,2]oxaborol-7-yl]oxy}propan-2-yl acetate hydrochloride] | – | – | – | – | – | – | – | – | – | – | significantly higher | > 32 µg/mL | > 32 µg/mL | > 32 µg/mL | > 32 µg/mL | – | – | – |
| CC(C)C(=O)OC[C@@H]1COc2cccc3c2B(O1)O[C@@H]3CN.Cl [Example 4, [(2S,6S)-2-(aminomethyl)-4-bora-3,5,8-trioxatricyclo[7.3.1.04,13]trideca-1(12),9(13),10-trien-6-yl]methyl 2-methylpropanoate hydrogen chloride] | – | – | – | – | – | – | – | – | – | – | significantly higher | > 32 µg/mL | > 32 µg/mL | > 32 µg/mL | > 32 µg/mL | – | – | inactive |
| CCC(=O)OC[C@@H]1COc2cccc3c2B(O1)O[C@@H]3CN.Cl [Example 8, [(2S,6S)-2-(aminomethyl)-4-bora-3,5,8-trioxatricyclo[7.3.1.04,13]trideca-1(12),9(13),10-trien-6-yl]methyl propanoate hydrogen chloride] | – | – | – | – | – | – | – | – | – | – | significantly higher | > 32 µg/mL | > 32 µg/mL | > 32 µg/mL | > 32 µg/mL | 8.45 ± 0.64 Lg (CFU/lung) | 0.82 Lg (CFU/lung) | inactive |
| CC(C)(C)C(=O)OC[C@H](COc1cccc2c1B(O)O[C@@H]2CN)OC(=O)C(C)(C)C.Cl [Example 3, (2S)-3-[(2,2-dimethylpropanoyl)oxy]-1-{[(3S)-3-(aminomethyl)-1-hydroxy-1,3-dihydrobenzo[2,1-c][1,2]oxaborol-7-yl]oxy}propan-2-yl 2,2-dimethylpropanoate hydrochloride] | – | – | – | – | – | – | – | – | – | – | significantly higher | > 32 µg/mL | > 32 µg/mL | > 32 µg/mL | > 32 µg/mL | – | – | inactive |
